Active and inactive are the calls of the source.
Key:
cells [1] = format: functional, cell-based
cells [2] = format: functional, cell-based; remark: listed apart in the source
INS1 = assay: INS-1E survival protection against cytokine death – cell-based, luminescence, retest, dose response (AID 449756); format: functional; details: Rattus norvegicus;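 note: cell death triggered by IL-1 beta plus TNF-alpha plus IFN-gamma mixture; protective hits raise ATP signal compared with cytokine alone wells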
[3] = molecular target: T1, Corticotropin-releasing factor receptor 2/Corticotropin-releasing factor-binding protein (Homo sapiens, UniProt P24387+Q13324); assay: Dose Response confirmation of uHTS hits for small molecule antagonists of the CRF-binding protein and CRF-R2 receptor complex.; format: functional; details: read-out: IC50_Mean
T1 sequence (Q13324 whole entry): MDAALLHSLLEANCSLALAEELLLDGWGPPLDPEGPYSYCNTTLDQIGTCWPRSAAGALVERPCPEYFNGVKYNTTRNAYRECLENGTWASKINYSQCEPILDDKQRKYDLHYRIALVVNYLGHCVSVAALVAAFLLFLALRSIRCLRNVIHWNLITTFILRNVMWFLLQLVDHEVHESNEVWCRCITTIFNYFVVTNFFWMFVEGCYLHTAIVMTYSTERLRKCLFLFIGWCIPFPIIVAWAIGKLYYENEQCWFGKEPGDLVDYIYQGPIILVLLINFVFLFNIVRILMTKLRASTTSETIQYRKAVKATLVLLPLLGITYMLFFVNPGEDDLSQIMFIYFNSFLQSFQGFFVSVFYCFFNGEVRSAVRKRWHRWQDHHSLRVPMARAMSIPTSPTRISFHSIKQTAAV
T1 sequence (P24387 whole entry): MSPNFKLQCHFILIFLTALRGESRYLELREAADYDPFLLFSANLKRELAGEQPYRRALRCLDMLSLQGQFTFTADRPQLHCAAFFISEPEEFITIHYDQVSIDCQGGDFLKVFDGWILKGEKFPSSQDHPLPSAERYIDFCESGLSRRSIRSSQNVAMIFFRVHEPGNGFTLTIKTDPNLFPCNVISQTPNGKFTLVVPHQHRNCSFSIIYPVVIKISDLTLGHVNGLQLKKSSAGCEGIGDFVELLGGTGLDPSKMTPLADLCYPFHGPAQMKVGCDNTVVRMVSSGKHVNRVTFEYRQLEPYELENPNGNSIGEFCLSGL

[4] = molecular target: T1, Corticotropin-releasing factor receptor 2/Corticotropin-releasing factor-binding protein; assay: activators of CRF receptor 2 with binding protein – uHTS hits, confirmation (AID 602473); format: functional; details: read-out: EC50_Mean
[5] = Luminescence Cell-Based Dose Confirmation HTS to Identify Activators of 5'UTR Stem-Loop Driven Alpha-Synuclein mRNA Translation in H4 Neuroglioblastoma Cells. [Related pubchem assays: 1829 (Project Summary), 1814 (Primary HTS)]; format: functional
[6] = Luminescence Cell-Based Dose Response HTS to Identify Activators of Luciferase Translation or Activity in H4 […] Cells. [Related pubchem assays: 1829 (Project Summary), 1814 (Primary HTS)]; format: functional
H4 = assay: Luminescence Cell-Based Dose Response HTS to Identify Activators of 5'UTR Stem-Loop Driven Prion Protein mRNA Translation in H4 Neuroglioblastoma Cells. [Related pubchem assays: 1829 (Project Summary), 1814 (Primary HTS)]; format: functional; details: Homo sapiens
H9c2 = assay: cells; format: functional, cell-based; details: Rattus norvegicus, H9c2, Myocardium;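 note: confirmatory concentration-response retest of ultra-high-throughput screening hits for modulation of myocardial damage; cell death induced by hydrogen peroxide oxidative stress; compound pretreatment for 60 min then peroxide exposure for 2 h; potency is for protecting the cells against peroxide damage rather than for killing them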
[7] = molecular target: T2, RNA-binding protein pos-1 (Caenorhabditis elegans, UniProt G5EF15); assay: disruptors of C. elegans POS-1 RNA interaction – biochemical, fluorescence polarization, dose response (AID 1964);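 note: purified POS-1 fused to maltose binding protein made in E. coli; potency of compounds blocking POS-1 binding to fluorescent RNA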
T2 sequence (G5EF15 whole entry): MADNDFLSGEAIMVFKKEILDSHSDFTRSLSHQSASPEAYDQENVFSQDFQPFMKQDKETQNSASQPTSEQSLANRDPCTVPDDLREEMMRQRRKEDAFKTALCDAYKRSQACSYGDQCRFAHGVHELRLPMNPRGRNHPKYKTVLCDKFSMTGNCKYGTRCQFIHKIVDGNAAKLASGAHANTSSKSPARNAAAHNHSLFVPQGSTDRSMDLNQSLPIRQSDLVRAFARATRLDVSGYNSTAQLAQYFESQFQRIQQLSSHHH

[8] = molecular target: T3, Zinc finger protein mex-5 (Caenorhabditis elegans, UniProt Q9XUB2); assay: potency of MEX-5 RNA-binding blockers – biochemical, C. elegans, fluorescence polarization, dose response (AID 1960)
T3 sequence (Q9XUB2 whole entry): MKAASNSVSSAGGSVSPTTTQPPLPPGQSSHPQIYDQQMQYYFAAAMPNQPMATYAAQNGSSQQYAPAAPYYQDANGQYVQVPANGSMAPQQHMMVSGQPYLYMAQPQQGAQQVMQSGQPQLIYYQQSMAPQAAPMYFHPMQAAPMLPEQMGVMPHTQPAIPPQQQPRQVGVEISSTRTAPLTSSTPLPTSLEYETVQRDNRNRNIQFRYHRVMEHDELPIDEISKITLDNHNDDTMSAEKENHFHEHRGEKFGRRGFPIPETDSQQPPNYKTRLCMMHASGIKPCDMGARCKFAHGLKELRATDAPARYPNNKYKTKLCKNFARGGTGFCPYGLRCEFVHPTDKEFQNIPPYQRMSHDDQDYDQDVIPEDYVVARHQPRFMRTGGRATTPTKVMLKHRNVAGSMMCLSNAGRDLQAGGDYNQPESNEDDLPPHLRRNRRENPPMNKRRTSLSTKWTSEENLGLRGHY

Cytochrome P450 2C19 = Cytochrome P450 2C19 (Homo sapiens, UniProt P33261); assay: Cytochrome panel assay with activity outcomes. Panel member name: p450-cyp2c19 Compounds with AC50 equal or less than 10 uM are considered active; format: functional; details: read-out: AC50
Sequence of Cytochrome P450 2C19 (P33261 whole entry): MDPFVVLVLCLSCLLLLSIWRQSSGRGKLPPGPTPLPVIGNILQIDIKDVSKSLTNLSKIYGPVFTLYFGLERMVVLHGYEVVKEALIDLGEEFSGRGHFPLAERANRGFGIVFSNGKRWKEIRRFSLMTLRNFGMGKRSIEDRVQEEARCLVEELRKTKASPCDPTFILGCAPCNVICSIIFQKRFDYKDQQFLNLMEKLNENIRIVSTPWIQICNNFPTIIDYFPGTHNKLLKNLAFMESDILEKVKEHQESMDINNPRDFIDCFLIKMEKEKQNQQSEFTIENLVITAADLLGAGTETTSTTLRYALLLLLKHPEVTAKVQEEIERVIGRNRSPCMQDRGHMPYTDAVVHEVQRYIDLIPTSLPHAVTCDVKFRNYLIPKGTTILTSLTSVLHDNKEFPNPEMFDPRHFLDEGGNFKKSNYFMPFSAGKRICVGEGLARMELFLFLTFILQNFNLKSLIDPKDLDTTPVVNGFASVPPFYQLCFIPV

Cytochrome P450 3A4 = Cytochrome P450 3A4 (Homo sapiens, UniProt P08684);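 note: CYP3A4 tested as one member of a cytochrome P450 panel screen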
Sequence of Cytochrome P450 3A4 (P08684 whole entry): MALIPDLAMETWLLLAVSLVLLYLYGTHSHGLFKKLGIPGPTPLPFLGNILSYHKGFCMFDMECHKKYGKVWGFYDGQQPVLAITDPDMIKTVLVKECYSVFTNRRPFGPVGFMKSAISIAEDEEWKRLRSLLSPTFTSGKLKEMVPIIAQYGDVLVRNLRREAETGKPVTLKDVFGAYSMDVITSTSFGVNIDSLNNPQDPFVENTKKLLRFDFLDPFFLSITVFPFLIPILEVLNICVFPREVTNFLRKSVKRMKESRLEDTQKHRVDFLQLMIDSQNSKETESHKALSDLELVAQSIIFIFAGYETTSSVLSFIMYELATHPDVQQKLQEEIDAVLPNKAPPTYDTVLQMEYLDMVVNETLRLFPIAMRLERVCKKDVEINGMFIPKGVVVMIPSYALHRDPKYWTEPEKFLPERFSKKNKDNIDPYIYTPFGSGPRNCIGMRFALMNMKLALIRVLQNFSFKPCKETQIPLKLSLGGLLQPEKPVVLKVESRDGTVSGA

[9] = viability of uninfected HEp-2 cells – cell-based, HTS, cytotoxicity control for RSV inhibitor project, dose response (AID 2410); format: functional; details: human respiratory syncytial virus

In the case of `Nc1ccnn1-c1ccccc1`, the EC50 (cells [1]) is reported as > 350 µM (not active) and the EC50 (cells [2]) is reported as > 350 µM (not active).

For `O=C(N/N=C/c1ccccc1O)/C(=C/c1ccccc1)CCO`, the EC50 (cells [1]) was 50.4 µM (active), the EC50 (cells [2]) was > 350 µM (not active) and the AC50 (INS1) was 2.57 µM (active).

For `CCN(CC)S(=O)(=O)c1ccc2c(c1)N(CC(=O)NCc1ccco1)C(=O)CO2`, the IC50 [3] was > 47.1 µM (inactive) and the EC50 [4] was > 53 µM (inactive).

In the case of `O=C(O)c1ccccc1OCCOc1ccccc1C(=O)O`, the EC50 (cells [1]) is reported as > 350 µM (not active) and the EC50 (cells [2]) is reported as > 350 µM (not active).

For `O=C(CSCC(=O)N1CCCCC1)Nc1nc(-c2ccc(Cl)s2)cs1`, the EC50 [5] was 29.7 µM (active), the EC50 [6] was 8.35 µM (active) and the EC50 (H4) was 10.9 µM (active).

For `Cc1ccc(CNC(=O)CCc2nc(O)c3ccccc3n2)cc1`, the IC50 (H9c2) was 12.5 µM (active).

In the case of `CCN(CC(=O)Nc1c(F)cccc1F)C(=O)c1ccc(S(=O)(=O)N2CCC(C)CC2)cc1`, the IC50 [3] is reported as > 47.1 µM (inactive) and the EC50 [4] is reported as > 53 µM (inactive).

With `O=C(Nc1ccc(Cl)cc1)NN1CC(=O)N(c2cccc(C(F)(F)F)c2)CC1=O` the EC50 (cells [1]) was > 350 µM (not active) and the EC50 (cells [2]) was > 350 µM (not active).

With `CC1(C)CC(=O)C2=C(C1)OC(N)=C(C#N)C2c1cc2c(cc1[N+](=O)[O-])OCO2` (stereo not given) the EC50 [7] was 18 µM (active), the EC50 [8] was 14.3 µM (active) and the EC50 [4] was 5.48 µM (active).

With `CC(C)COc1ccc(CN=C(S)Nc2ccccc2)cc1Cl` the IC50 [3] was > 47.1 µM (inactive) and the EC50 [4] was > 53 µM (inactive).

In the case of `COc1cc(/C=N/NC(=O)NC23CC4CC(CC(C4)C2)C3)ccc1OCC(N)=O`, the IC50 (H9c2) is reported as > 79 µM (inactive).

For `COC(=O)CNC(=O)CSc1nnc2cc(C)c3ccccc3n12`, the EC50 (cells [1]) was > 350 µM (not active) and the EC50 (cells [2]) was > 350 µM (not active).

With `O=C(CCCc1ccccc1)Nc1ccccn1` the EC50 (cells [1]) was > 350 µM (not active) and the EC50 (cells [2]) was > 350 µM (not active).

In the case of `O=C(CCN1CCCCC1)c1ccc2c(c1)OCO2`, the IC50 [3] is reported as > 47.1 µM (inactive) and the EC50 [4] is reported as > 53 µM (inactive).

With `O=C1NC(=O)N(CCNc2ncc(C(F)(F)F)cc2Cl)C(=O)C1/C=N/OCc1c(F)cccc1Cl` (stereo not given) the AC50 (Cytochrome P450 2C19) was 8.91 µM (inconclusive), the IC50 [3] was > 47.1 µM (inactive) and the EC50 [4] was > 53 µM (inactive). For the same compound, the AC50 (Cytochrome P450 3A4) was 3.16 µM (inconclusive).

For `NC(=O)NC1CCCc2c1[nH]c1ccc(Cl)cc21` (stereo not given), the CC50 [9] was 18 µM (active).

With `NC(=O)c1nsc(C(=O)N(c2ccccc2)C(C(=O)NCc2ccc(F)cc2)c2ccc(O)cc2)c1N` (stereo not given) the IC50 (H9c2) was > 79 µM (inactive).

In the case of `Clc1ccc(-c2nnc(NCc3ccccc3)c3ccccc23)cc1`, the IC50 [3] is reported as > 47.1 µM (inactive) and the EC50 [4] is reported as > 53 µM (inactive).

In the case of `O=C(C[n+]1cc(-c2ccc(F)cc2)n2c1CCC2)N1c2ccccc2Sc2ccccc21`, the EC50 [5] is reported as 7.4 µM (active), the EC50 [6] is reported as 1.06 µM (active) and the EC50 (H4) is reported as 9.69 µM (active).

With `O=Nc1c(-c2ccccc2)cc2ccccn12` the EC50 [5] was 13.6 µM (active), the EC50 [6] was 12.1 µM (active) and the EC50 (H4) was 27.4 µM (active).

With `COc1ccc(C(=O)Nc2ccc3nc4n(c(=O)c3c2)CCCCC4)cc1OC` the IC50 [3] was > 47.1 µM (inactive) and the EC50 [4] was > 53 µM (inactive).

For `Cc1ccc(-n2nnnc2SCC(=O)Nc2sc(C)c(C)c2C#N)cc1C`, the EC50 [5] was 15.9 µM (active), the EC50 [6] was 15.6 µM (active) and the EC50 (H4) was > 120 µM (not active).

In the case of `Cc1ccc(C(=O)NCc2cccnc2)o1`, the IC50 [3] is reported as > 47.1 µM (inactive) and the EC50 [4] is reported as > 53 µM (inactive).

Source: ChEMBL document CHEMBL1201862, “PubChem BioAssay data set” (2004)
